Measurements from ChEMBL document CHEMBL1201862, “PubChem BioAssay data set” (2004).
Activity calls are given as the source filed them.

Experiments:
[1] = target: T1, Apoptotic protease-activating factor 1 (Homo sapiens, UniProt O14727); format: functional
T1 sequence (O14727 whole entry): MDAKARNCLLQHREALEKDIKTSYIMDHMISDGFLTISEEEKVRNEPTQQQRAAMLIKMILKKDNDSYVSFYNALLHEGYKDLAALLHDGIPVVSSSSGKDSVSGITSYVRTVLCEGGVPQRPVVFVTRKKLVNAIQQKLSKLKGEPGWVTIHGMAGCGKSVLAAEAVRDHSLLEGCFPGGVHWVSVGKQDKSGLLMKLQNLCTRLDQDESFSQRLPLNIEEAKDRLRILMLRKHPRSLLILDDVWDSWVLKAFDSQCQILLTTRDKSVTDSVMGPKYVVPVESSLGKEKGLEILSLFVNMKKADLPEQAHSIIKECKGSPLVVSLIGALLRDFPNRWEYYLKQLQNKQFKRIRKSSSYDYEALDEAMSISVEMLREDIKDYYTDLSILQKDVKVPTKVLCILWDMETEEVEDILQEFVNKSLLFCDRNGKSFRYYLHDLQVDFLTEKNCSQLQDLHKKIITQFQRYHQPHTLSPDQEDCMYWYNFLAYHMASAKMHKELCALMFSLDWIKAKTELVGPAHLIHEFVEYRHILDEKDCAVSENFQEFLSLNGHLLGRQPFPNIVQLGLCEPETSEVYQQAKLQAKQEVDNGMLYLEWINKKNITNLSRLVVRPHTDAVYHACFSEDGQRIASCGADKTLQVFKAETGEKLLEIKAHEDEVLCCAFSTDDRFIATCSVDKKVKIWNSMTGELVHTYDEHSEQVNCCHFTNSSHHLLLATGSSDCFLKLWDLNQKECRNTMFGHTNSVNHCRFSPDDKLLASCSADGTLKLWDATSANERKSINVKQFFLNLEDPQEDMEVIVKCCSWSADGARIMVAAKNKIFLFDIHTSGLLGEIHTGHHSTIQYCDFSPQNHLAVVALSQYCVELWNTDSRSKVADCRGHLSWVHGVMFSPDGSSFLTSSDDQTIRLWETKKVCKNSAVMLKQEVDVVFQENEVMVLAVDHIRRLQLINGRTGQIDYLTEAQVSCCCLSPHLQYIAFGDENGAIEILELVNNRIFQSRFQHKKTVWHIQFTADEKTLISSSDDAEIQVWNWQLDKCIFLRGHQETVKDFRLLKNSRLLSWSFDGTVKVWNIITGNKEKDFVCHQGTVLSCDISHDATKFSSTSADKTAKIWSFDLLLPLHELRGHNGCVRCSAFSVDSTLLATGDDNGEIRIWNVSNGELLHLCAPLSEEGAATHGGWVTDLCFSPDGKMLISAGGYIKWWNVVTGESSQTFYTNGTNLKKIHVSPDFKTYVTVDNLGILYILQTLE

[2] = target: Large T antigen (Simian virus 40, UniProt P03070); format: functional, Betapolyomavirus macacae;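 also: Confirmatory-stage PubChem screen for compounds that inhibit SV40 T antigen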
Large T antigen, sequence (P03070 whole entry): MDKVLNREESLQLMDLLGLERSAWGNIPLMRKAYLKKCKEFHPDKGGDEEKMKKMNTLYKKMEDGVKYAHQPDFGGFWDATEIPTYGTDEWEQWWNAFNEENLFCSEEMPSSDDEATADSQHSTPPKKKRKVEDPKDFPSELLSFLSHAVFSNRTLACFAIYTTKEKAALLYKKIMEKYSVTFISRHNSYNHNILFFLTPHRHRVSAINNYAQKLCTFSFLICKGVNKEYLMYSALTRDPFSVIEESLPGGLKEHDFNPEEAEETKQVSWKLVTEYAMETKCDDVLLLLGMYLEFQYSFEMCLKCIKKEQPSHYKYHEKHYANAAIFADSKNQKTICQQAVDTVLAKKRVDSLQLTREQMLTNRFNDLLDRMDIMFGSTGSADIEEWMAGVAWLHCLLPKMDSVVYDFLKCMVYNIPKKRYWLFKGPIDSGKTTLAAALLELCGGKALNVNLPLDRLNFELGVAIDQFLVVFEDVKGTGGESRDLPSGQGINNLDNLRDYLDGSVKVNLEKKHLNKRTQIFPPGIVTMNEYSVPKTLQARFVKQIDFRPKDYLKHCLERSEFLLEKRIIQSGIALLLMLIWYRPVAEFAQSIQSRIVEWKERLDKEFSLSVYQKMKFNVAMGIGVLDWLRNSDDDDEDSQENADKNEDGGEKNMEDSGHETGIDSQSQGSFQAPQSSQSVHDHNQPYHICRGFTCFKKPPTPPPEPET

[3] = target: Beta-2 adrenergic receptor (Homo sapiens, UniProt P07550); assay: beta2AR agonists driving receptor internalization, dose response, cell-based, FAP fluorogen, flow cytometry, cherry pick 1 (AID 588763); format: functional
Beta-2 adrenergic receptor, sequence (P07550 whole entry): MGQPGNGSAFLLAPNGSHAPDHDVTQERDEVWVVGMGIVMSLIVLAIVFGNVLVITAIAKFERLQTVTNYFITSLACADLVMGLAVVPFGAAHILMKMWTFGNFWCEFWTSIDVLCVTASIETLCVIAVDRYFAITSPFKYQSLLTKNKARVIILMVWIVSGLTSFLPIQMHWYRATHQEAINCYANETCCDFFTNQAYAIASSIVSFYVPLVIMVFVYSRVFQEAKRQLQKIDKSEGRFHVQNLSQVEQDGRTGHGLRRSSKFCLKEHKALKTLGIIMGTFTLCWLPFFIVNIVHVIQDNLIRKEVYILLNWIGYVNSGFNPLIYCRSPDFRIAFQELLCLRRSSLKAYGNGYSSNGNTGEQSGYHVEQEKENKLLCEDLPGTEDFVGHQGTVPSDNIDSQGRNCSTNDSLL

[4] = tested on: Streptococcus sp. 'group A'; assay: growth inhibition of control SK(-) GAS strain, dose response, counter-screen for streptokinase expression inhibitor project, luminescence, kanamycin, BacTiterGlo, confirmation (AID 1900); format: functional, organism-based
[5] = target: T2, Streptokinase A (Streptococcus pyogenes serotype M1, UniProt P10520); assay: S. pyogenes streptokinase expression inhibitors, potency, dose response, plasminogen activation absorbance, OD405 (AID 1914); format: functional, Streptococcus pyogenes M1 GAS;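 also: secreted streptokinase activity via plasminogen activation per viability signal from cell pellet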
T2 sequence (P10520 whole entry): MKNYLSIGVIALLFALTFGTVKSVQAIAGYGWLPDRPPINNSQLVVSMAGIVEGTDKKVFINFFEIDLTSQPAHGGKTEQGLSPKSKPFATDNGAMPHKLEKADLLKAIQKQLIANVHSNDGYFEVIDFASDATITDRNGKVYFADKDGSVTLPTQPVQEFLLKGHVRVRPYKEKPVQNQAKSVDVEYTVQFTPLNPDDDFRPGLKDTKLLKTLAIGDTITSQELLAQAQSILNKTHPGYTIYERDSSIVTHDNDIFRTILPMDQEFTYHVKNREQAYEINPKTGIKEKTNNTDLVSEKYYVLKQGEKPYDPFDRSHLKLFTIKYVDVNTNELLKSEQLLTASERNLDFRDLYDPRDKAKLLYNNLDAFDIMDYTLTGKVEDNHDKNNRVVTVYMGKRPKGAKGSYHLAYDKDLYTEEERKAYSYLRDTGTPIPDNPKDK

[6] = tested on: Streptococcus; assay: Group A Streptococcus viability loss, dose response, counter-screen for streptokinase expression inhibitor project, luminescence, BacTiterGlo (AID 1915); format: functional, organism-based;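 also: potency for reduction of bacterial viability or growth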
[7] = target: Heat shock protein HSP 90-alpha (Homo sapiens, UniProt P07900); format: functional, organism-based
[8] = target: T3, Insulin-degrading enzyme (Homo sapiens, UniProt P14735); assay: activators of recombinant IDE enzyme, dose response, counter-screen for IDE activator project, biochemical, fluorescence polarization (AID 588681)
T3 sequence (P14735 whole entry): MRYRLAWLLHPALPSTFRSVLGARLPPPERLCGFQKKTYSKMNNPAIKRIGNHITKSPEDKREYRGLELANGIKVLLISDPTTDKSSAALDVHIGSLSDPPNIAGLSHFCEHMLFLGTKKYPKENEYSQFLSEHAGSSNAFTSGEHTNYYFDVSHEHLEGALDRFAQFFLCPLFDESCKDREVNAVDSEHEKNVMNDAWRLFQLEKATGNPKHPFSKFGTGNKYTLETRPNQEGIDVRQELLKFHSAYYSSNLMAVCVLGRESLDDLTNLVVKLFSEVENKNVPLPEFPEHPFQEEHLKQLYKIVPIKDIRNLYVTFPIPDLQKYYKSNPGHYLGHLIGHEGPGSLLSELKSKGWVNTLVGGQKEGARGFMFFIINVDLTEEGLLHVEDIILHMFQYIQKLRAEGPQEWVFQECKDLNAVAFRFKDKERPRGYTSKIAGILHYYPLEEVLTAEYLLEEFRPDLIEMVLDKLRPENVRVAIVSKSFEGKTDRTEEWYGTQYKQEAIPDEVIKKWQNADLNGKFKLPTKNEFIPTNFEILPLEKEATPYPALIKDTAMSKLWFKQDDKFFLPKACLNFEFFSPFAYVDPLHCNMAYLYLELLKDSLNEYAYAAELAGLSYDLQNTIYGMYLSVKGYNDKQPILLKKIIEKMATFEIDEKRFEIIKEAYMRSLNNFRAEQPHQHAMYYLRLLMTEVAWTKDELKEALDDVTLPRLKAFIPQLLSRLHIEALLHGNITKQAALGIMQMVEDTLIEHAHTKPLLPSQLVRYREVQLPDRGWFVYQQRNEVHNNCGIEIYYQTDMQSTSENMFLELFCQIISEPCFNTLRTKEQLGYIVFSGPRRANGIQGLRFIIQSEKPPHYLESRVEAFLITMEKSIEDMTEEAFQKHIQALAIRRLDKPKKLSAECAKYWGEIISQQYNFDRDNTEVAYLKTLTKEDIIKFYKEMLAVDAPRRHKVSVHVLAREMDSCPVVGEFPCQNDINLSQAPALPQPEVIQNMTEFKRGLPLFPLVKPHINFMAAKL

[9] = target: T3, Insulin-degrading enzyme; assay: activators of endogenous IDE in HEK cells, dose response, cell-based, fluorescence polarization (AID 588439); format: functional
[10] = tested on: HEK293; assay: HEK cell cytotoxicity by LDH release, dose response, cytotoxicity control for IDE activator project, fluorescence, HEK cells (AID 588440); format: functional, cell-based; details: Homo sapiens;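 also: cytotoxicity by LDH release measuring loss of membrane integrity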
[11] = tested on: HEK293; assay: optical interference in Abeta FP readout, dose response, artefact control for IDE activator project, biochemical, fluorescence polarization (AID 588442); format: functional, cell-based; details: Homo sapiens
[12] = tested on: HEK293; assay: cells; format: functional, cell-based; details: Homo sapiens
[13] = target: T4, Nuclear receptor subfamily 0 group B member 1 (Homo sapiens, UniProt P51843); assay: Luminescence-based cell-based high throughput dose response assay for inhibitors of the orphan nuclear receptor subfamily 0, group B, member 1 (DAX1; NR0B1). [Related pubchem assays (depositor defined):AID504766, AID504790]; format: functional
T4 sequence (P51843 whole entry): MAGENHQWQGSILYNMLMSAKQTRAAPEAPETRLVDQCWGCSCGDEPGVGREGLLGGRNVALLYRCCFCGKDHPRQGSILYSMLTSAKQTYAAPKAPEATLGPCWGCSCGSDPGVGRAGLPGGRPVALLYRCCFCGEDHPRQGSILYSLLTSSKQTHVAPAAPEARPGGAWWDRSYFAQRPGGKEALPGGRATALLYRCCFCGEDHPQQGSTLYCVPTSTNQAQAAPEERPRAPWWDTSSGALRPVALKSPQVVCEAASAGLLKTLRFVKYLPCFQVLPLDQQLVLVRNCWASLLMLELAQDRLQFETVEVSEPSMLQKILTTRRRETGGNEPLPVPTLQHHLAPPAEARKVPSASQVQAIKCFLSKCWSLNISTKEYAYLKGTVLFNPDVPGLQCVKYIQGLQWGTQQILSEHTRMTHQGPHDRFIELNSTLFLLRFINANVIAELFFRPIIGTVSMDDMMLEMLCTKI

[14] = microbe, parasite or virus in culture; format: functional; details: Mycobacterium tuberculosis
[15] = growth suppression of PTEN-null colon cells, dose response, cell-based, HCT116 PTEN knockout (AID 1047); format: functional;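 also: HCT116 colon tumor cells with PTEN knocked out; cells exposed to compound for 60 hours before readout; potency for loss of cell viability measured by luminescence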
[16] = growth suppression of beta-catenin-knockout colon cells, dose response, cell-based, HCT116, human colon tumor (AID 1045); format: functional;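 also: HCT116 colon tumor cells with beta catenin knocked out; cells exposed to compound for 60 hours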
[17] = Luminescence Cell-Based Dose Retest to Confirm Inhibitors of Cancer Stem Cells. [Related pubchem assays (depositor defined):AID2717, AID2721]; format: functional; details: Homo sapiens
[18] = target: Trypsin (Sus scrofa, UniProt P00761); assay: porcine trypsin inhibitors, dose response, selectivity assay for Rce1 protease inhibitor project, biochemical, quenched peptide fluorescence, cherry-pick (AID 488789)
Trypsin, sequence (P00761 whole entry): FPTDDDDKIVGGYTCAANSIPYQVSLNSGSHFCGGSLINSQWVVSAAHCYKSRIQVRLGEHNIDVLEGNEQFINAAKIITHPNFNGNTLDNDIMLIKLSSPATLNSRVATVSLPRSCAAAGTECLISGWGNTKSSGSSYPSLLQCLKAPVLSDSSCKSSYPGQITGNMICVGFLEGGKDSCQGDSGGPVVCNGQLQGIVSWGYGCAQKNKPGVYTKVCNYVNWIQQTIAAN

[19] = target: CAAX prenyl protease 2 (Saccharomyces cerevisiae S288c, UniProt Q03530); format: biochemical
CAAX prenyl protease 2 (Saccharomyces cerevisiae S288c, UniProt Q03530), sequence (Q03530 whole entry): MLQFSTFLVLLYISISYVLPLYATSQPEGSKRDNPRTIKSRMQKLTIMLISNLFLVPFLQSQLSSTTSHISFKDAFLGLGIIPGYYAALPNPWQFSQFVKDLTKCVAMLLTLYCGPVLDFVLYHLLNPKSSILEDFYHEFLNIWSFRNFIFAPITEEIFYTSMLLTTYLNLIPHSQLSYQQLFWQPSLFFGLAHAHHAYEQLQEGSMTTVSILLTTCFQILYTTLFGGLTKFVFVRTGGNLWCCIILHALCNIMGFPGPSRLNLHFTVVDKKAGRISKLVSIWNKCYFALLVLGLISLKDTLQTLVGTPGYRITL

[20] = target: CAAX prenyl protease 2 (Homo sapiens, UniProt Q9Y256); assay: human Rce1 protease inhibitors, dose response, biochemical, yeast membranes, quenched-peptide fluorescence, cherry-pick (AID 588849)
CAAX prenyl protease 2 (Homo sapiens, UniProt Q9Y256), sequence (Q9Y256 whole entry): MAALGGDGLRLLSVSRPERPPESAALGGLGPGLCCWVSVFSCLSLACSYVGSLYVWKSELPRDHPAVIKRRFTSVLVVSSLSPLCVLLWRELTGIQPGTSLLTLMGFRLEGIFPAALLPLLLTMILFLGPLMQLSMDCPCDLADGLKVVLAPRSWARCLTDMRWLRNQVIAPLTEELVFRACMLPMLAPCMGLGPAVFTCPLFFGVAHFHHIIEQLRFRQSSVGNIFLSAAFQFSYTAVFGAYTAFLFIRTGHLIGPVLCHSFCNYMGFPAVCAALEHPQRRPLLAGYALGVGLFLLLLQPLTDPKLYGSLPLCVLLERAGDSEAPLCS

[21] = target: T5, Protein skinhead-1 (Caenorhabditis elegans, UniProt P34707); format: functional
T5 sequence (P34707 whole entry): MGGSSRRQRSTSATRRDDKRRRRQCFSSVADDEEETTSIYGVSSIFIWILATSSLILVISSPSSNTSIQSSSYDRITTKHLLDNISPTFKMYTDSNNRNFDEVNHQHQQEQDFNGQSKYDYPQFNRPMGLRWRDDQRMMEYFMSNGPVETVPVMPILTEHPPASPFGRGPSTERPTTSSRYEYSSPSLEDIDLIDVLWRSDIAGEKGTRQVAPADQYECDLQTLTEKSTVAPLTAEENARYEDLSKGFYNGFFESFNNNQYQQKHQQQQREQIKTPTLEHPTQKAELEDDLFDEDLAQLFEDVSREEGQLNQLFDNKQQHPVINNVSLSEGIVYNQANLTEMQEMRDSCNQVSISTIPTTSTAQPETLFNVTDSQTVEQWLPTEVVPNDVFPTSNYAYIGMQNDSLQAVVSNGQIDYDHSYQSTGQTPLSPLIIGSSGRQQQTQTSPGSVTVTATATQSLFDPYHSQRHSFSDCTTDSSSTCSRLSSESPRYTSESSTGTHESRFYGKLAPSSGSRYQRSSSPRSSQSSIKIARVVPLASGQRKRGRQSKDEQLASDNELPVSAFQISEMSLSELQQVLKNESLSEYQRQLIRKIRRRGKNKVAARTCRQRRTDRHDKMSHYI

[22] = tested on: HEK293; assay: inhibitors of LMP1-driven NF-kB reporter, dose response, cell-based, HEK293, luciferase, cherry-pick (AID 588343); format: functional; details: Homo sapiens
[23] = target: Latent membrane protein 1 (Human herpesvirus 4 (strain B95-8), UniProt P03230); assay: TES1-eGFP NF-kB reporter inhibition versus Tet-On dsRED, dose response, selectivity assay for LMP1 NF-kB inhibitor project, imaging, HEK293T, dual-color eGFP/dsRED, cherry-picks (AID 588398); format: functional, cell-based
Latent membrane protein 1, sequence (P03230 whole entry): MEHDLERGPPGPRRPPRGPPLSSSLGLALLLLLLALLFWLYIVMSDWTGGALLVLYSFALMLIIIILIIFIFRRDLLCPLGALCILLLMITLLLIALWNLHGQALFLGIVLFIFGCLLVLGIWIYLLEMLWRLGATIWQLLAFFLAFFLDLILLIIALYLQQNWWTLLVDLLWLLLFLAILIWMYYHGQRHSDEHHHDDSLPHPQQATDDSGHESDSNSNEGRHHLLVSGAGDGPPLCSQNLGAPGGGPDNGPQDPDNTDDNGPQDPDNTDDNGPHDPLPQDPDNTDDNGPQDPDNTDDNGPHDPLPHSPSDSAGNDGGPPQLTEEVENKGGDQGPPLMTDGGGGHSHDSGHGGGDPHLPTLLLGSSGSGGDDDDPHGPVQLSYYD

[24] = Shn3 3'UTR reporter inhibitors, dose response, cell-based, Clone20 osteoblasts, firefly luciferase, cherry-picked (AID 624132); format: functional;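 also: firefly luciferase luminescence from reporter carrying the Shn3 3'UTR in osteoblasts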
[25] = HepG2 cell cytotoxicity, dose response, cytotoxicity control for Shn3 inhibitor project, CellTiter-Glo, cherry-picked (AID 624134); format: functional, cell-based
[26] = target: CAAX prenyl protease 1 (Saccharomyces cerevisiae S288c, UniProt P47154); assay: Ste24 protease inhibitors, dose response, biochemical, S. cerevisiae, plate reader, cherry-pick (AID 488815)
CAAX prenyl protease 1, sequence (P47154 whole entry): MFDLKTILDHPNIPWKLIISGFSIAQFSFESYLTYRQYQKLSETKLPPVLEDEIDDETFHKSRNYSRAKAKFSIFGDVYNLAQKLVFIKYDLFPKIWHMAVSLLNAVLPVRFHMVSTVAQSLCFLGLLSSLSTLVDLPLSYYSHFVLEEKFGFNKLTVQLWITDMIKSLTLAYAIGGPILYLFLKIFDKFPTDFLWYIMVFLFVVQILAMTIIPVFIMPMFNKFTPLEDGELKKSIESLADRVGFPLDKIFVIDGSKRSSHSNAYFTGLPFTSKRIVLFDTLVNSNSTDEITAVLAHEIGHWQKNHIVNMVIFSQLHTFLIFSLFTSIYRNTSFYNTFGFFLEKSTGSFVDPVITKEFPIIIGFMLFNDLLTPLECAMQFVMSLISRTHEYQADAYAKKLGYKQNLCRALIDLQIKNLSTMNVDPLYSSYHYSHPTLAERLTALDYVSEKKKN

[27] = target: Dual specificity tyrosine-phosphorylation-regulated kinase 1A (Rattus norvegicus, UniProt Q63470); format: biochemical, Homo sapiens

CCC(CN(C)C)Oc1cc(NCc2ccccc2)c2ncn(C(C)C)c2c1 (stereo not given)
IC50 [1]: 7.98 µM (active)

CC(=O)c1cccc(S(=O)(=O)N2CCCC(c3nc(-c4ccc(C)o4)no3)C2)c1 (stereo not given)
IC50 [2]: 36.4 µM (active)
EC50 [3]: 0.143 µM (active)

Oc1cc(OCc2ccccc2)ccc1-c1[nH]ncc1-c1ccccc1
EC50 [4]: 2.88 µM (active)
EC50 [5]: > 150 µM (not active)
EC50 [6]: 10.5 µM (active)
AC50 [7]: 9.12 µM (active)
EC50 [8]: > 54.7 µM (inactive)
EC50 [9]: > 54.7 µM (inactive)
IC50 [10]: 16.9 µM (inactive)
EC50 [11]: > 55.9 µM (inactive)

Cc1ccc(C(=O)OCC(=O)Nc2nc(-c3ccccc3)cs2)cc1NC(=O)c1ccco1
EC50 [3]: 1.41 µM (active)

CCc1ccc(S(=O)(=O)Nc2c(C)nc3ncnn3c2O)cc1
IC50 [12]: > 67.5 µM (inactive)
IC50 [13]: > 67.5 µM (inactive)

COc1ccc(CNC(=O)c2c(N)n(CCCN3CCOCC3)c3nc4ccccc4nc23)cc1
CC50 [14]: 24.5 µM (active)
EC50 [15]: 17.4 µM (active)
EC50 [16]: 15.3 µM (active)
AC50 [17]: 6.56 µM (active)
AC50 [18]: 10.5 µM (active)
AC50 [19]: 22.9 µM (active)
AC50 [20]: 23.9 µM (active)
IC50 [21]: > 100 µM (inactive)

COc1ccc(S(=O)(=O)Cc2ccc(C(=O)NC3CC3)o2)cc1
IC50 [12]: > 67.6 µM (inactive)
IC50 [13]: > 67.6 µM (inactive)

CN1OC[C@@H]2CN[C@H](c3ccc(-c4cc5ccccc5o4)cc3)C[C@@H]21
AC50 [22]: 0.0503 µM (active)
AC50 [23]: 51.1 µM (active)
AC50 [24]: < 0.26 µM (active)
AC50 [25]: > 70 µM (inactive)

COc1ccc2c3c([nH]c2c1)C(C)=NCC3 [HARMALINE]
AC50 [26]: 2.77 µM (active)
AC50 [27]: 1.24 µM (active)
